Experimental data taken from a melting point compilation (Tetko et al.; mined from patent text by program, amines drawn as free bases though some values may be those of a salt).

Row | Compound | melting point [°C]
1 | O=c1[nH]c2cc(Cl)c([N+](=O)[O-])c(Cl)c2[nH]c1=O | 320 to 325
2 | O=C1CC2CCSc3ccccc3C2=NN1c1ccccc1 (stereo unspecified) | 138 to 140
3 | O=C(Cc1ccncc1)NC1CCCCC1 | 147 to 148
4 | CNc1nc(-c2ccc(OCCCn3ccnc3)cc2)no1 | 154 to 155
5 | COc1ccc(CCNc2nccc(-c3cccc(NC(=O)CCCN4C=CC=NC4)c3)n2)cc1OC | 121 to 122
6 | Nc1ccc(C(=O)N2CCCCc3sc(Cl)cc32)cc1 | 146 to 149
7 | FC(F)(F)COc1ccccc1Sc1nc[nH]n1 | 100 to 101
8 | COc1ccc2c(=O)n(S(=O)(=O)c3ccc(Cl)cc3)c(=O)[nH]c2c1 | 205 to 206
9 | CCCCCCOc1nc(N)nc2c1ncn2C1C=CC(CO)C1 (stereo unspecified) | 90 to 92
10 | CCOC(=O)c1c(SC)c(N=O)c2ccccn12 | 134 to 135
11 | CCN(C)c1nc2sc3c(NCc4ccccn4)ncnc3c2c2c1CCC(C)(C)C2 | 152
12 | C(=CCON(Cc1ccccc1)Cc1ccccc1)CON(Cc1ccccc1)Cc1ccccc1 | 82 to 85
13 | CC(C)(C)OC(=O)NC1CCc2cccc(-c3ccccc3)c2CC1=O (stereo unspecified) | 173 to 174
14 | CC1CCN(c2nn3ccnc3c3c2CCCC3)CC1 | 95 to 95.5
15 | O=c1[nH]c(=Cc2ccc(OCc3ccccc3)cn2)c(=O)[nH]c1=Cc1ccc2c(c1)OCO2 | 255 to 256
16 | O=C(O)COc1cc2c(c(Cl)c1Cl)C(=O)C(Cl)(C1CCCCC1)C2 (stereo unspecified) | 142 to 145
17 | O=C(Nc1ccc(C2=CCN(C(=O)OCc3ccccc3)CC2)cc1)OCc1ccccc1 | 146 to 148
18 | COc1ccc(N2CCCn3c2nc2c(Cl)ccc(C(OC)C(F)(F)F)c23)c(C)n1 (stereo unspecified) | 144 to 146
19 | CCC1(CC)O[C@@H](C(=O)O)[C@H](c2ccccc2)N1C(=O)OC(C)(C)C | 185
20 | CCCCOc1c(N(C)C(=O)OC(C)(C)C)n(CC(C)C)c(=O)c2ccc(-n3cnnn3)cc12 | 199 to 200
21 | c1cc(Oc2cnccn2)c2cc[nH]c2c1 | 192 to 193
22 | Cc1nsc(Cl)c1CS(=O)(=O)C1=NOC(C)(C)C1 | 113 to 114
23 | NC(=O)c1ccccc1CNC(=S)NC(=O)c1ccccc1 | 147 to 150
24 | N#Cc1c(Cl)c(Cl)c(Oc2ccccc2)c(Cl)c1C#N | 147 to 150
25 | CCC(C)(C)NC(Nc1ccc2c(c1)OCO2)=C(C#N)S(=O)(=O)c1ccc(Cl)cc1 | 169 to 170
26 | CSc1nc2ccc(Br)cc2c2nn(-c3ccc(C)cc3)c(=O)n12 | 213

Row | Compound | melting point [°C]
27 | CC(C)(C)NC(=O)c1ccc(C(O)CCCc2cn([Si](C)(C)C)cn2)cc1 (stereo unspecified) | 141 to 143
28 | Cc1ccccc1NS(=O)(=O)c1cc(S(=O)(=O)Nc2ccccc2C)c2ccccc2c1O | 220 to 222
29 | CN1CCc2c(-c3ccc(Cl)cc3)ccc([N+](=O)[O-])c2C1 | 162 to 163
30 | CCc1nn(-c2ccc(C(=N)N)cc2)c(=O)n1-c1ccc(CCC(=O)O)cc1 | > 250
31 | Cc1cc(-n2ccc(OCc3ccc(OC(F)F)cc3)cc2=O)sc1C(=O)NCc1ccccc1 | 178 to 180
32 | CCOC(=O)c1ccc(-c2nc(C(=O)OCC)ns2)cc1 | 66 to 67.5
33 | ON=CNc1nc(OCc2ccc(F)cc2)ncc1F | 169 to 171
34 | O=c1c2cc(O)c(O)cc2c2cc(O)c(O)cc2n1CCCc1ccccc1 | 155 to 158
35 | Cn1ncc(/C=C/C(=O)O)c1-c1cccnc1 | 236 to 237
36 | Cc1ccc2c(c1)C(c1ccc(OCC(=O)O)cc1)C(=O)O2 (stereo unspecified) | 198 to 203
37 | CC(=O)Nc1ccc(C(=O)Nc2ccccc2NC(=O)CNC(=O)OC(C)(C)C)cc1 | 125 to 126
38 | Cc1cc(Cl)ccc1NC(=S)NC(=O)c1ccccc1 | 148
39 | CC(c1ccc(F)c(F)c1F)n1ncc(-c2ccc(S(N)(=O)=O)cc2)c(-c2ccc(F)cc2)c1=O (stereo unspecified) | 192 to 194
40 | COCC1CN=C(c2ccc(OCCCCCCCc3cc(C)no3)cc2)O1 (stereo unspecified) | 53 to 55
41 | Nc1cc(Oc2ccc3c(C(=O)Nc4cccc(C(F)(F)F)c4)nccc3c2)ncn1 | 197 to 200
42 | Cc1cc(NS(=O)(=O)c2ccccc2)cnc1CCCC#N | 119 to 120
43 | O=C1CNC(=O)C(CSC(c2ccccc2)(c2ccccc2)c2ccccc2)N1 (stereo unspecified) | 225 to 227
44 | Cc1ccc(C(C)(C)C)cc1P(=O)(O)c1cc(C(C)(C)C)ccc1C | 182 to 183
45 | O=C1Nc2ccccc2N(C(=O)N2CCC(CCCCN3CCCC3)CC2)c2ncccc21 | 193 to 195
46 | COC(=O)COc1ccc2ccc(C(C)=O)c(O)c2c1 | 133 to 135
47 | O=S(=O)(Nc1cccc(Br)c1)c1cc(S(=O)(=O)Nc2cccc(Br)c2)c2ccccc2c1 | 183 to 186
48 | CC(Br)C(=O)N1C(=O)c2ccccc2OC12CCCCC2 (stereo unspecified) | 74 to 76
49 | CNC(=S)Nc1ccc(NNC=O)cc1 | 176 to 178
50 | CCNC(=O)N(CC)C(=O)c1nc(Cl)c(Cl)[nH]1 | 146
51 | CCc1cc2c(s1)C(C(=O)O)CC2=O (stereo unspecified) | 128 to 132
52 | Nc1cc(C(=O)N(Cc2ccccc2)Cc2ccccc2)ccc1OCc1ccccc1 | 81

Row | Compound | melting point [°C]
53 | COc1cc(C=CC=O)ccc1OCc1coc(-c2ccccc2)n1 | 144 to 145
54 | O=C(Nc1ccc(Oc2ccnc(NC3(CO)CCCC3)n2)c2ccccc12)c1cc(F)cc(N2CCOCC2)c1 | 115 to 117
55 | c1ccc(N2CCNc3nc4ccccc4n3CC2)cc1 | 156 to 158
56 | O=C(Nc1ccc2c(c1)CS(=O)(=O)N2)C(=O)N1CCC(Cc2ccccc2)CC1 | 181 to 182
57 | Nc1nnc(N2CCN(C(=O)OCc3ccccc3)CC2)[nH]1 | 157 to 159
58 | CCCCCCCCCCOc1ccc(CC(=O)OC)cc1 | 42 to 44
59 | CCCCCCC(=Cc1ccccc1)C(O)Cc1nc(C)c(C)nc1C (stereo unspecified) | 61 to 62
60 | O=C(NCCCCN1CCC(c2ccccc2)CC1)c1ccc2ccccc2c1 | 143 to 144
61 | O=C(C=Cc1ccc(CNCC2CCCC2)cc1)Nc1ccc(-c2ccc(Cl)cc2)cc1 | 209 to 210
62 | CCCCc1nc(Sc2ccc(OC)cc2)c(C(=O)OCC)[nH]1 | 96
63 | Nc1c(Br)cc(S(=O)(=O)C(F)(F)F)cc1[N+](=O)[O-] | 147
64 | O=[N+]([O-])c1ccc2c(c1)C(c1ccccc1)=NCc1nc(CO)cn1-2 | 250 to 251
65 | COc1ccccc1CC(c1sccc1C)N(C)C=O (stereo unspecified) | 80 to 83
66 | COc1cc(OCC(=O)O)c(C)cc1SCc1ccc(-c2cccc(C(F)(F)F)c2)cc1 | 138 to 139
67 | COC(=O)[C@@H](NC(=O)OCc1ccccc1)C(C)C | 54 to 56
68 | C=CCNc1nc(NCC=C)c2scc(-c3ccccc3)c2n1 | 98 to 100
69 | O=C(NN1CCCCC1)c1nc(-c2ccc(Cl)cc2Cl)c(-c2ccc(Br)cc2)s1 | 171 to 173
70 | Cn1c(N2CC3CC2CN3C(=O)c2ccccc2)nc(-c2ccncn2)cc1=O (stereo unspecified) | 133 to 135
71 | Cc1cccc(C(=O)O)c1Cl | 141 to 142
72 | c1ccc2c(c1)CNc1ccccc1N2 | 114 to 116
73 | O=c1c2ccc(F)cc2oc2ccc(C(F)(F)F)cc12 | 140 to 142
74 | CC(C)(C)c1ccc(C(=O)NC(=N)N)cc1 | 255 to 258
75 | Oc1cccc2sncc12 | 133 to 134
76 | C=CCCc1sc(C#N)c2c1C(=O)CC(C)(C)C2 | 43 to 46
77 | CCOC(=O)C(C)n1c(-c2ccc(Cl)cc2)nc2cccnc21 (stereo unspecified) | 103 to 106
78 | CCN(c1nc(C)cc(C(=O)O)n1)c1ccc(C(C)C)cc1Br | 102 to 104

Row | Compound | melting point [°C]
79 | CCOC(=O)c1ccc(N=C(Nc2ccc(C(=O)OCC)cc2)c2ccc(C(C)(C)C)cc2)cc1 | 212 to 219
80 | CCN(CC)CCOc1ccc2cc3ccc(OCCN(CC)CC)cc3nc2c1 | 94 to 95
81 | Nc1nc2ccc(C(=C(Cl)Cl)c3ccccc3)cc2n1N1C=CC=CS1 | 214 to 217
82 | OC1CCN(c2ccccc2)C12CCN(C1CC3CCCCCC3C1)CC2 (stereo unspecified) | 219
83 | O=C(CNc1ccc2cn[nH]c2c1)N1CCC(Cc2ccccc2)CC1 | 179 to 182
84 | O=C(NCCc1ccc(O)c(F)c1)OCc1ccccc1 | 89 to 90
85 | CCOC(=O)c1ccc(/C=C/C(=O)O)cn1 | 201 to 202
86 | CN1CCN(c2ccccc2CC2CCN(c3ccccc3)C2=O)CC1 (stereo unspecified) | 104 to 106
87 | CSc1nnc(-c2ccccc2CS(N)(=O)=O)o1 | 138 to 140
88 | COc1ccc(C(=O)Nc2ccc(F)cc2)cc1Nc1ccc(F)cc1 | 193 to 194
89 | COc1ccc(C2=NN(c3nc(-c4cccs4)ns3)C(=O)[C@H]3CC=CC[C@@H]23)cc1Cl (relative stereo) | 254 to 256
90 | CCOc1ccc(C(=O)OC)cc1C(=N)N | 133 to 135
91 | Nc1cccc(C=Cc2ccc(O)cc2)n1 | 224 to 225
92 | CCCN(CCC)C(=O)CNc1nc(-c2ccccc2)nc2c1CCCC2 | 87 to 88
93 | COCCOc1ccccc1-c1cc2[nH]c3ccc(O)cc3c2c2c1C(=O)NC2=O | 275 to 279
94 | CCc1nccc2c(CC(=O)O)cccc12 | 166 to 181
95 | Cn1ncc(/C=C/C(=O)Nc2ccc(CC(=O)O)cc2)c1-c1ccc(F)cc1 | 245 to 246
96 | c1ccc(CNc2nc(-n3cncn3)nc3ccccc23)cc1 | 193 to 195
97 | OCC(O)COc1ccc(-c2nc(-c3cccs3)c[nH]2)cc1 (stereo unspecified) | 197 to 200
98 | Cc1nc(-c2c(Cl)cc(C(F)(F)F)cc2Cl)[nH]c1[N+](=O)[O-] | 316 to 318
99 | CCOC(=O)CNC(=O)c1c(Cl)c2cc(Oc3ccc(C(F)(F)F)cc3)ccc2n1-c1ccc(OC(C)C)cc1 | 80 to 81
100 | O=C(O)Cc1ccc2onc(-c3ccc(Cl)cc3)c2c1 | 189
101 | Cc1ccc(-c2c(NS(=O)(=O)c3ccc(C(C)(C)C)cc3)ncnc2OCCOc2ccc(N(C)C)cc2)cc1 | 142 to 145
